Test system: Hep3B cells (hepatocellular carcinoma cell line)
Test: In vitro MTS cell viability assay (NCI-60 methodology), Hep3B
Type: cell-based
Conditions: Homo sapiens, 48 h, Table 6, MTS, 2 days drug incubation, 50% reduction vs time zero, read-out: Hep3B LC50
Summary of the method: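 Hep3B cells given five 2-fold dilutions of compound for 2 days, with viability by MTS measured at time zero and at end. LC50 is the concentration giving a 50% fall in viable cells relative to the start of treatment, per NCI-60 formula.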

| Structure (SMILES) | LC50 |
| --- | --- |
| COc1ccc(-n2ncc3c(NC(=O)c4ccc([N+](=O)[O-])s4)nc(OC4CCCCC4)nc32)cc1 [Compound 6-16, N-(6-(cyclohexyloxy)-1-(4-methoxyphenyl)-1H-pyrazolo[3,4-d]pyrimidin-4-yl)-5-nitrothiophene-2-carboxamide] | 1.36 µM |
| COc1ccc(-n2ncc3c(NC(=O)c4ccc([N+](=O)[O-])s4)nc(-c4ccc(C)nc4)nc32)cc1 [Compound 6-17, N-(1-(4-methoxyphenyl)-6-(6-methylpyridin-3-yl)-1H-pyrazolo[3,4,d]pyrimidin-4-yl)-5-nitrothiophene-2-carboxamide] | 0.19 µM |
| COc1ccc(-n2ncc3c(NC(=O)c4ccc([N+](=O)[O-])s4)nc(-c4ccc(Cl)cc4)nc32)cc1 [Compound 6-20, N-(6-(4-chlorophenyl)-1-(4-methoxyphenyl)-1H-pyrazolo[3,4-d]pyrimidin-4-yl)-5-nitrothiophene-2-carboxamide] | 0.32 µM |
| COc1ccc(-n2ncc3c(NC(=O)c4ccc([N+](=O)[O-])s4)nc(-c4ccc(Cl)nc4)nc32)cc1 [Compound 6-21, N-(6-(6-chloropyridin-3-yl)-1-(4-methoxyphenyl)-1H-pyrazolo[3,4,d]pyrimidin-4-yl)-5-nitrothiophene-2-carboxamide] | 0.12 µM |
| COc1ccc(-n2ncc3c(NC(=O)c4ccc([N+](=O)[O-])s4)nc(-c4ccc(Cl)cc4F)nc32)cc1 [Compound 6-22, N-(6-(4-chloro-2-fluorophenyl)-1-(4-methoxyphenyl)-1H-pyrazolo[3,4-d]pyrimidin-4-yl)-5-nitrothiophene-2-carboxamide] | 0.38 µM |
| COc1ccc(-n2ncc3c(NC(=O)c4ccc([N+](=O)[O-])s4)nc(-c4ccc(F)c(F)c4)nc32)cc1 [Compound 6-23, N-(6-(3,4-difluorophenyl)-1-(4-methoxyphenyl)-1H-pyrazolo[3,4-d]pyrimidin-4-yl)-5-nitrothiophene-2-carboxamide] | 0.17 µM |
| COc1ccc(-n2ncc3c(NC(=O)c4ccc([N+](=O)[O-])s4)nc(-c4ccc5c(c4)OCO5)nc32)cc1 [Compound 6-24, N-(6-(benzo[d][1,3]dioxol-5-yl)-1-(4-methoxyphenyl)-1H-pyrazolo[3,4-d]pyrimidin-4-yl)-5-nitrothiophene-2-carboxamide] | 0.19 µM |
| CCCOc1ccc(-c2nc(NC(=O)c3ccc([N+](=O)[O-])s3)c3cnn(-c4ccc(OC)cc4)c3n2)cn1 [Compound 6-25] | 0.21 µM |
| COCCOc1ccc(-c2nc(NC(=O)c3ccc([N+](=O)[O-])s3)c3cnn(-c4ccc(OC)cc4)c3n2)cn1 [Compound 6-26, N-(6-(6-(2-methoxyethoxy)pyridin-3-yl)-1-(4-methoxyphenyl)-1H-pyrazolo[3,4,d]pyrimidin-4-yl)-5-nitrothiophene-2-carboxamide] | 0.22 µM |
| CCOCCOc1ccc(-c2nc(NC(=O)c3ccc([N+](=O)[O-])s3)c3cnn(-c4ccc(OC)cc4)c3n2)cn1 [Compound 6-27, N-(6-(6-(2-ethoxyethoxy)pyridin-3-yl)-1-(4-methoxyphenyl)-1H-pyrazolo[3,4-d]pyrimidin-4-yl)-5-nitrothiophene-2-carboxamide] | 0.21 µM |
| COc1ccc(-n2ncc3c(NC(=O)c4ccc([N+](=O)[O-])s4)nc(C4=CCC(C)(C)CC4)nc32)cc1 [Compound 6-29, N-(6-(4,4-dimethylcyclohex-1-en-1-yl)-1-(4-methoxyphenyl)-1H-pyrazolo[3,4-d]pyrimidin-4-yl)-5-nitrothiophene-2-carboxamide] | 0.82 µM |
| COc1ccc(-n2ncc3c(NC(=O)c4ccc([N+](=O)[O-])s4)nc(C4CCC(C)(C)CC4)nc32)cc1 [Compound 6-30, N-(6-(4,4-dimethylcyclohexyl)-1-(4-methoxyphenyl)-1H-pyrazolo[3,4-d]pyrimidin-4-yl)-5-nitrothiophene-2-carboxamide] | 1.32 µM |
| O=C(Nc1nc(N2CCC[C@H]2CO)nc2c1cnn2-c1cccc(Cl)c1)c1ccc([N+](=O)[O-])s1 [Compound 6-31, (S)—N-(1-(3-chlorophenyl)-6(2-(hydroxymethyl)pyrrolidin-1-yl)-1H-pyrazolo[3,4-d]pyrmidin-4-yl)-5-nitrothiophene-2-carboxamide] | > 1.25 µM |
| COC(=O)[C@@H]1CCCN1c1nc(NC(=O)c2ccc([N+](=O)[O-])s2)c2cnn(-c3cccc(Cl)c3)c2n1 [Compound 6-32, methyl (1-(3-chlorophenyl)-4-(5-nitrothiophene-2-carboxamido)-1H-pyrazolo[3,4-d]pyrimidin-6-yl)-L-prolinate] | 0.56 µM |
| O=C(Nc1nc(-c2ccsc2)nc2c1cnn2-c1cccc(Cl)c1)c1ccc([N+](=O)[O-])s1 [Compound 6-33, N-(1-(3-chlorophenyl)-6-(thiophen-3-yl)-1H-pyrazolo[3,4-d]pyrimidin-4-yl)-5-nitrothiophene-2-carboxamide] | 0.29 µM |
| O=C(Nc1nc(-c2cccc(F)c2)nc2c1cnn2-c1cccc(Cl)c1)c1ccc([N+](=O)[O-])s1 [Compound 6-34, N-(1-(3-chlorophenyl)-6-(3-fluorophenyl)-1H-pyrazolo[3,4-d]pyrimidin-4-yl)-5-nitrothiophene-2-carboxamide] | 0.19 µM |

| Structure (SMILES) | LC50 |
| --- | --- |
| O=C(Nc1nc(-c2cccc(Cl)c2)nc2c1cnn2-c1cccc(Cl)c1)c1ccc([N+](=O)[O-])s1 [Compound 6-37, N-(1,6-bis(3-chlorophenyl)-1H-pyrazolo[3,4-d]pyrimidin-4-yl)-5-nitrothiophene-2-carboxamide] | 0.23 µM |
| O=C(Nc1nc(-c2ccc(Cl)cc2)nc2c1cnn2-c1cccc(Cl)c1)c1ccc([N+](=O)[O-])s1 [Compound 6-38, N-(1-(3-chlorophenyl)-6-(4-chlorophenyl)-1H-pyrazolo[3,4-d]pyrimidin-4-yl)-5-nitrothiophene-2-carboxamide] | 0.38 µM |
| O=C(Nc1nc(-c2cccc(OC(F)(F)F)c2)nc2c1cnn2-c1cccc(Cl)c1)c1ccc([N+](=O)[O-])s1 [Compound 6-40, N-(1-(3-chlorophenyl)-6-(3-(trifluoromethoxy)phenyl)-1H-pyrazolo[3,4-d]pyrimidin-4-yl)-5-nitrothiophene-2-carboxamide] | 0.48 µM |
| O=C(Nc1nc(-c2ccc(C(F)(F)F)cc2F)nc2c1cnn2-c1cccc(Cl)c1)c1ccc([N+](=O)[O-])s1 [Compound 6-41, N-(1-(3-chlorophenyl)-6-(2-fluoro-4-(trifluoromethyl)phenyl)-1H-pyrazolo[3,4-d]pyrimidin-4-yl)-5-nitrothiophene-2-carboxamide] | 0.32 µM |
| O=C(Nc1nc(-c2ccc(C(F)(F)F)cc2C(F)(F)F)nc2c1cnn2-c1cccc(Cl)c1)c1ccc([N+](=O)[O-])s1 [Compound 6-42] | 0.76 µM |
| COCCOc1ccc(-c2nc(NC(=O)c3ccc([N+](=O)[O-])s3)c3cnn(-c4cccc(Cl)c4)c3n2)cn1 [Compound 6-43, N-(1-(3-chlorophenyl)-6-(6-(2-methoxyethoxy)pyridin-3-yl)-1H-pyrazolo[3,4-d]pyrimidin-4-yl)-5-nitrothiophene-2-carboxamide] | 0.09 µM |
| CCOCCOc1ccc(-c2nc(NC(=O)c3ccc([N+](=O)[O-])s3)c3cnn(-c4cccc(Cl)c4)c3n2)cn1 [Compound 6-44, N-(1-(3-chlorophenyl)-6-(6-(2-ethoxyethoxy)pyridin-3-yl)-1H-pyrazolo[3,4-d]pyrimidin-4-yl)-5-nitrothiophene-2-carboxamide] | 0.45 µM |
| Cc1ccn(-c2nc(NC(=O)c3ccc([N+](=O)[O-])s3)c3cnn(-c4ccc(Cl)cc4)c3n2)n1 [Compound 6-46, N-(1-(4-chlorophenyl)-6-(3-methyl-1H-pyrazol-1-yl)-1H-pyrazolo[3,4-d]pyrimidin-4-yl)-5-nitrothiophene-2-carboxamide] | 0.16 µM |
| O=C(Nc1nc(N2CCCCC2)nc2c1cnn2-c1ccc(Cl)cc1)c1ccc([N+](=O)[O-])s1 [Compound 6-47, N-(1-(4-chlorophenyl)-6-(piperidin-1-yl)-1H-pyrazolo[3,4,d]pyrimidin-4-yl)-5-nitrothiophene-2-carboxamide] | 0.71 µM |
| O=C(Nc1nc(-c2ccc(F)cc2)nc2c1cnn2-c1ccc(Cl)cc1)c1ccc([N+](=O)[O-])s1 [Compound 6-48, N-(1-(4-chlorophenyl)-6-(4-fluorophenyl)-1H-pyrazolo[3,4-d]pyrimidin-4-yl)-5-nitrothiophene-2-carboxamide] | 0.18 µM |
| O=C(Nc1nc(-c2ccc(Cl)cc2)nc2c1cnn2-c1ccc(Cl)cc1)c1ccc([N+](=O)[O-])s1 [Compound 6-49, N-(1,6-bis(4-chlorophenyl)-1H-pyrazolo[3,4-d]pyrimidin-4-yl)-5-nitrothiophene-2-carboxamide] | 0.17 µM |
| O=C(Nc1nc(-c2ccc3c(c2)OCO3)nc2c1cnn2-c1ccc(Cl)cc1)c1ccc([N+](=O)[O-])s1 [Compound 6-50, N-(6-(benzo[d][1,3]dioxol-5-yl)-1(4-chlorophenyl)-1H-pyrazolo[3,4-d]pyrimidin-4-yl)-5-nitrothiophene-2-carboxamide] | 0.16 µM |
| COCCOc1ccc(-c2nc(NC(=O)c3ccc([N+](=O)[O-])s3)c3cnn(-c4ccc(Cl)cc4)c3n2)cn1 [Compound 6-51, N-(1-(4-chlorophenyl)-6-(6-(2-methoxyethoxy)pyridin-3-yl)-1H-pyrazolo[3,4-d]pyrimidin-4-yl)-5-nitrothiophene-2-carboxamide] | 0.05 µM |
| CCOCCOc1ccc(-c2nc(NC(=O)c3ccc([N+](=O)[O-])s3)c3cnn(-c4ccc(Cl)cc4)c3n2)cn1 [Compound 6-52, N-(1-(4-chlorophenyl)-6-(6-(2-ethoxyethoxy)pyridin-3-yl)-1H-pyrazolo[3,4-d]pyrimidin-4-yl)-5-nitrothiophene-2-carboxamide] | 0.22 µM |
| CCOCCOCCOc1ccc(-c2nc(NC(=O)c3ccc([N+](=O)[O-])s3)c3cnn(-c4ccc(C(F)(F)F)cc4)c3n2)cn1 [Compound 6-56, N-(6(6-(2-(2-ethoxyethoxy)ethoxy)pyridin-3-yl)-1-(4-(trifluoromethyl)phenyl)-1H-pyrazolo[3,4-d]pyrimidin-4-yl)-5-nitrothiophene-2-carboxamide] | 0.2 µM |

Source: patent publication US20240150356A1, “Pyrimidine amide compounds and use thereof” (ALPHALA CO., LTD., priority 2019, published 2024)
